One assay concerns the target CDK4/CycD3 (Homo sapiens, UniProt P11802). Briefly: Enzyme activity test. Format: biochemical. In a few lines:
(§1)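 Compounds ([…] DMSO stock) were preincubated 30 min at room temperature with enzyme, substrate and cofactor before ATP addition. The reaction ran 150 min at room temperature and was read on EZ Reader (mobility shift). Percent inhibition was calculated against DMSO and no-enzyme controls.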

The target in the next assay is CDK6/CycD1 (Homo sapiens, UniProt Q00534). Briefly: Enzyme activity test. Format: biochemical. An outline of the steps: as §1
In another assay the target is CDK2/CycE1 (Homo sapiens, UniProt P24941). Briefly: Enzyme activity test. Format: biochemical. In a few lines: as §1
For another assay, the system named is xMCF-7/Palbo-R cells. In words: xMCF-7/Palbo-R xenograft tumor model. Conditions: oral tube feeding twice daily for 20 days, Balb/c nude female mice. Format: in vivo. Here is the method:
To establish a xenograft tumor model, 1×10^7 xMCF-7/Palbo-R cells were suspended in 0.2 mL of a mixture of Matrigel and […] (1:1) and injected subcutaneously into 6-8 week-old Balb/c nube female mice. Tumor growth was observed periodically, and the volume (volume=½×(length×width 2)) was measured with a vernier caliper. When the tumors grew to an average volume of 100˜150 mm3, the drug was administered to mice (12 days after inoculation) in random groups according to the tumor size and their body weights. […] The drugs were administered by oral tube feeding twice daily for 20 days. Tumor volume and animal weight were measured twice a week and continued until the end of the experiment. Dosing day was defined as day 0. Measurement time points were day 0, day 3, day 7, day 10, day 14, day 17 and day 20. All mice were euthanized by cervical dislocation. At the end of the experiment, tumors were collected and weighed to calculate TGI values (see Table 4).

A further assay has as its system OVCAR-3 cells. In words: OVCAR-3 xenograft tumor model. The format is in vivo. The conditions noted are these: 30 mg/kg, oral tube feeding twice daily for 21 days, BALB/c nude female mice. How it is done:
OVCAR-3 cells were cultured in RPMI1640 culture medium containing 20% fetal bovine serum and 10 μg/mL Insalin. Cells in the exponential growth phase were collected, and the cells were resuspended in the mixed solution of PBS and Matrigel in a ratio of 1:1 to a suitable concentration for subcutaneous tumor inoculation in nude mice.
To establish a xenograft tumor model, 1×10^7 OVCAR-3 cells were suspended in 0.2 mL of a mixture of PBS and Matrigel (1:1) and injected subcutaneously into 6-8-week-old BALB/c nube female mice on the right back. Tumor growth was observed periodically, and the volume (volume=½[…](length×width 2)) was measured with a vernier caliper. When the tumors grew to an average volume of 100˜150 mm^3, the drug was administered to mice (27 days after inoculation) in random groups according to the tumor size and their body weights. […] Tumor volume and animal weight were measured twice a week and continued until the end of the experiment. Dosing day was defined as day 0. Measurement time points were day 0, day 3, day 7, day 10, day 14, day 17 and day 21. All mice were euthanized by cervical dislocation. At the end of the experiment, tumors were collected and weighed to calculate TGI values (see Table 5).

In US20240287065A1, “COMPOUND AS CDK KINASE INHIBITOR AND USE THEREOF” (TYK MEDICINES (ZHENGZHOU) , INC., priority 2021, published 2024) one finds IC50 and TGI data, which are given here for 2 molecules.

Chain of CDK4/CycD3 (P11802 whole entry, species assumed): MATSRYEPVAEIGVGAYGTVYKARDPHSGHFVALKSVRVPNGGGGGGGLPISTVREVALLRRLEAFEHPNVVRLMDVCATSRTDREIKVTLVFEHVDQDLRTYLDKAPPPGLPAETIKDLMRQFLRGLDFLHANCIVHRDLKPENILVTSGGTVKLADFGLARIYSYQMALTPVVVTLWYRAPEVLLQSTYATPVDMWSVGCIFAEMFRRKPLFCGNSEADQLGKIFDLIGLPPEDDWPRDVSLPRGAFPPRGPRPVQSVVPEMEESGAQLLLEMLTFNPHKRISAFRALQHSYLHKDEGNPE
Chain of CDK4/CycD3 (P30281 whole entry partner, species assumed): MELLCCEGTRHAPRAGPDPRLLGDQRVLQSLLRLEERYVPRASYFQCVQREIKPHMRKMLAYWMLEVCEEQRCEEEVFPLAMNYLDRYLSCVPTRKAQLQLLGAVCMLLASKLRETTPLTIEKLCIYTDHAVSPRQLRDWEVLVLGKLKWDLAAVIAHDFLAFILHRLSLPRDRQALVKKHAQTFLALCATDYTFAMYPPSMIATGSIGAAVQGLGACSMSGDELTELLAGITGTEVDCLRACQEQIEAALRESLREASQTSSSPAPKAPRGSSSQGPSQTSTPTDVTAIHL
Chain of CDK6/CycD1 (Q00534 whole entry, species assumed): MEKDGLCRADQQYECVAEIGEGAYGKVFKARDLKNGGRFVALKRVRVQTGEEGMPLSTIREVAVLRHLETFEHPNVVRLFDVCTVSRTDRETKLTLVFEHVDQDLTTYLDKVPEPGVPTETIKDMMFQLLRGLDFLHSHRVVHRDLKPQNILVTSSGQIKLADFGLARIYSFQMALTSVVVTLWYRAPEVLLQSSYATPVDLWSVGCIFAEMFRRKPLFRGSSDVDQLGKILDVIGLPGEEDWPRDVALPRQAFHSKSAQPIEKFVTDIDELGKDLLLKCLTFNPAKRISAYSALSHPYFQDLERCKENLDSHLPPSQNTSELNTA
Chain of CDK6/CycD1 (P24385 whole entry partner, species assumed): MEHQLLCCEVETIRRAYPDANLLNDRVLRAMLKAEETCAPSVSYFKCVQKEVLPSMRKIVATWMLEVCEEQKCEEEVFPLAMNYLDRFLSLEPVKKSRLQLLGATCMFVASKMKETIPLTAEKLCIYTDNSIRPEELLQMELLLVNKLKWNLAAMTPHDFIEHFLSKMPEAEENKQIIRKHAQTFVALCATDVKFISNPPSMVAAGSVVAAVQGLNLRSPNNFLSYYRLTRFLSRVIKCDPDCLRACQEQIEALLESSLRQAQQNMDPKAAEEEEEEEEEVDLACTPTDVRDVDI

On to `C[C@@]1(O)CCC[C@H]1n1c(=O)c(OC(F)F)cc2cnc(NC3CCN(S(C)(=O)=O)CC3)nc21` [Example 3], for which the IC50 at CDK4/CycD3, at CDK6/CycD1 and against CDK2/CycE1 was less than 10 nM in each case. Further, the tumour growth inhibition (TGI) was 64.4% in the assay with xMCF-7/Palbo-R cells (10 mg/kg), 64.6% in the assay with xMCF-7/Palbo-R cells (20 mg/kg) and 71.3% in the assay on OVCAR-3 cells.

In the case of `C[C@@]1(O)CCC[C@H]1n1c(=O)c(C(F)F)cc2cnc(NC3CCN(S(C)(=O)=O)CC3)nc21` [PF-06873600, reference compound], the tumour growth inhibition (TGI) is 36.2% with xMCF-7/Palbo-R cells (10 mg/kg) and 52.6% in the assay with OVCAR-3 cells.
